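Protocol summary: plate cells (96-well), add compound at 5 concentrations, incubate 48 h, interpolate endpoints linearly. At the GI50, growth is halved.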 Active and inactive are the calls of the source. No stated cut-off is given here; in the data, active = GI50 up to about 1.1 µM and inactive = higher.
Columns and labels:
Assay in all cases: DTP human tumour cell line panel, 48 h
A498 = system: A498
CCRF-CEM = system: CCRF-CEM
COLO 205 = system: COLO 205
Hs-578T = system: Hs-578T
IGROV-1 = system: IGROV-1
M14 = system: M14
MCF7 = system: MCF7
MOLT-4 = system: MOLT-4
PC-3 = system: PC-3
SF-295 = system: SF-295
SF-539 = system: SF-539
SK-MEL-2 = system: SK-MEL-2
SK-OV-3 = system: SK-OV-3
SN12C = system: SN12C
SNB-75 = system: SNB-75
SR = system: SR
U-251 = system: U-251
UACC-257 = system: UACC-257
Malme-3M = system: Malme-3M

Measured: GI50

O=C1/C(=C\c2ccc([N+](=O)[O-])cc2)Sc2scc(-c3ccc(O)c(O)c3)[n+]21
inactive: A498 > 10 µM | CCRF-CEM 2.68 µM | COLO 205 2.34 µM | Hs-578T 14.7 µM | IGROV-1 5.11 µM | M14 5.81 µM | MCF7 3.56 µM | MOLT-4 2.62 µM | PC-3 5.71 µM | SF-295 12.5 µM | SF-539 5.02 µM | SK-MEL-2 14.7 µM | SK-OV-3 12.7 µM | SN12C 4.5 µM | SNB-75 9.25 µM | SR 2.62 µM | U-251 6.4 µM | UACC-257 6.87 µM

CCC(CC)(CO)CNc1cc(Cl)nc(N)n1
inactive: A498 > 100 µM | CCRF-CEM > 100 µM | COLO 205 > 100 µM | Hs-578T > 100 µM | IGROV-1 > 100 µM | MCF7 > 100 µM | MOLT-4 > 100 µM | Malme-3M > 100 µM | PC-3 > 100 µM | SF-295 > 100 µM | SF-539 > 100 µM | SK-MEL-2 > 100 µM | SK-OV-3 > 100 µM | SN12C > 100 µM | SNB-75 > 100 µM | SR > 100 µM | U-251 > 100 µM | UACC-257 > 100 µM

O=C(CC(Cl)=C(Cl)Cl)c1ccccc1
inactive: A498 > 100 µM | CCRF-CEM 13.7 µM | COLO 205 28.8 µM | Hs-578T > 100 µM | IGROV-1 80 µM | M14 49.5 µM | MCF7 > 100 µM | MOLT-4 12.3 µM | Malme-3M 31.8 µM | PC-3 > 100 µM | SF-295 > 100 µM | SF-539 > 100 µM | SK-MEL-2 > 100 µM | SK-OV-3 > 100 µM | SNB-75 > 100 µM | SR 21.4 µM | U-251 57.1 µM | UACC-257 27.4 µM

C/C=C1/CC(C)C(C)(O)C(=O)OCC2C(O)CN3CCC(OC1=O)C23 (configuration not stated)
inactive: A498 > 100 µM | CCRF-CEM > 100 µM | COLO 205 > 100 µM | Hs-578T > 100 µM | IGROV-1 > 100 µM | M14 > 100 µM | MCF7 > 100 µM | MOLT-4 > 100 µM | PC-3 > 100 µM | SF-295 > 100 µM | SF-539 > 100 µM | SK-MEL-2 > 100 µM | SK-OV-3 > 100 µM | SN12C > 100 µM | SNB-75 > 100 µM | SR > 100 µM | U-251 > 100 µM | UACC-257 > 100 µM

CC(C)[Si](OC1=CCCCCC12C(=O)N(C)c1ccccc12)(C(C)C)C(C)C (configuration not stated)
inactive: A498 15.8 µM | CCRF-CEM 17.1 µM | COLO 205 18.9 µM | Hs-578T 21.6 µM | IGROV-1 25.1 µM | M14 23.3 µM | MCF7 16.9 µM | MOLT-4 32.5 µM | Malme-3M 20.2 µM | PC-3 25.5 µM | SF-295 13.5 µM | SF-539 22.5 µM | SK-MEL-2 18.2 µM | SK-OV-3 20.5 µM | SNB-75 13.5 µM | SR 29.9 µM | U-251 18.5 µM | UACC-257 14.9 µM

C=C1CCC2CC1[C@@H](C(=O)c1c[nH]c3ccccc13)NC2(C)C (some centres not stated)
inactive: A498 > 37.5 µM | CCRF-CEM > 37.5 µM | COLO 205 35 µM | Hs-578T > 37.5 µM | IGROV-1 > 37.5 µM | MCF7 > 37.5 µM | MOLT-4 > 37.5 µM | Malme-3M > 37.5 µM | PC-3 19.5 µM | SF-295 > 37.5 µM | SF-539 > 37.5 µM | SK-MEL-2 27.1 µM | SN12C > 37.5 µM | SNB-75 > 37.5 µM | SR 33 µM | U-251 > 37.5 µM | UACC-257 > 37.5 µM

CC(=O)NC1C(OCc2ccccc2)OC(CO)C(O)C1OCC(=O)N[C@@H](C)C(=O)N[C@H](CCC(=O)NCCNCCNc1c2ccccc2nc2cccc([N+](=O)[O-])c12)C(N)=O (some centres not stated)
inactive: A498 19.8 µM | CCRF-CEM 24 µM | COLO 205 25 µM | Hs-578T 22.5 µM | IGROV-1 8.87 µM | M14 56 µM | MCF7 37.9 µM | Malme-3M 19.2 µM | PC-3 22.1 µM | SF-295 57.4 µM | SF-539 33.3 µM | SK-MEL-2 22.3 µM | SK-OV-3 78.5 µM | SN12C 59.7 µM | SNB-75 33.2 µM | SR 18.1 µM | U-251 34.3 µM | UACC-257 21.2 µM

CC1=NN(c2nc(N)nc(CS(C)(=O)=O)n2)C(C)(C)C1
inactive: A498 > 100 µM | CCRF-CEM > 100 µM | COLO 205 > 100 µM | Hs-578T > 100 µM | IGROV-1 > 100 µM | M14 > 100 µM | MCF7 > 100 µM | MOLT-4 > 100 µM | PC-3 > 100 µM | SF-295 > 100 µM | SF-539 > 100 µM | SK-MEL-2 > 100 µM | SK-OV-3 > 100 µM | SNB-75 > 100 µM | SR > 100 µM | U-251 > 100 µM | UACC-257 > 100 µM
